Each structure is given as a SMILES string. pEC50: −log10 of the molar value.

One experiment is filed under the species Homo sapiens. Kind of experiment: Ratio of EC50 for S1PR3 (unknown origin) to EC50 for S1PR1 (unknown origin).
For experiment [1], the target named is Sphingosine 1-phosphate receptor 1 (Homo sapiens, UniProt P21453). Nature of the experiment: Agonist activity at S1P1 (unknown origin) by HTRF assay.
Experiment [2] has as its target Sphingosine 1-phosphate receptor 3 (Homo sapiens, UniProt Q99500). Kind of experiment: Agonist activity at S1PR3 (unknown origin) by HTRF assay.

Chain of Sphingosine 1-phosphate receptor 1 (P21453 whole entry): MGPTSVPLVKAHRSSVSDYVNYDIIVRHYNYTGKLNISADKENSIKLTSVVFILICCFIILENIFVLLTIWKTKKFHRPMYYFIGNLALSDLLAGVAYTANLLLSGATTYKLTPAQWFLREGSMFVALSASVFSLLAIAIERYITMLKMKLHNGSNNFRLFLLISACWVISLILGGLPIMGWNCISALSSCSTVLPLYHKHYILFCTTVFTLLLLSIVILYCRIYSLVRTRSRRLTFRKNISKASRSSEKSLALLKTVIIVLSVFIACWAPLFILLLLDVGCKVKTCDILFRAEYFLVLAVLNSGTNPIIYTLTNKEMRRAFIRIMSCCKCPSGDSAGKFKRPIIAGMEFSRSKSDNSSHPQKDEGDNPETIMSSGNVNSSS
Chain of Sphingosine 1-phosphate receptor 3 (Q99500 whole entry): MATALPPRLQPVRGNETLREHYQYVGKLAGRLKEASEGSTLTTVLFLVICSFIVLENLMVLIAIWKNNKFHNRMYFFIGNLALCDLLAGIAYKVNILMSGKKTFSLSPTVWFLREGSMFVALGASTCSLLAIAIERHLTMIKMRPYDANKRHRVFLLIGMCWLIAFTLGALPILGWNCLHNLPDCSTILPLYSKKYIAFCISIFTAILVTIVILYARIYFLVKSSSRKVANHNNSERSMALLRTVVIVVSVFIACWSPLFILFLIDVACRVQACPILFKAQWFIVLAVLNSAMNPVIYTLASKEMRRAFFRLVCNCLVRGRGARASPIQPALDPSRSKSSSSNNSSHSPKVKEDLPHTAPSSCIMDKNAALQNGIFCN

As for `CCc1nc(-c2ccc(-c3ccc(CC[C@@](N)(CO)COP(=O)(O)O)cc3)cc2)co1`, the Ratio EC50 in the experiment filed under Homo sapiens was 1.6. Further, the results for the pEC50 in experiment [1] and in experiment [2] were 6.33 and 6.13, respectively.
The matching figures for `CCc1nc(-c2ccc(-c3ccc(CCC(N)(CO)COP(=O)(O)O)cc3)cc2)co1` (racemic): 105, 8.30 and 6.28.
The like results for `CCc1nc(-c2ccc(-c3ccc(CC[C@](N)(CO)COP(=O)(O)O)cc3)cc2)co1` were, in that order, 173, 8.66 and 6.42.
With `CCc1nc(-c2ccc(-c3ccc(CCC(N)(CO)CO)cc3)cc2)co1`, the pEC50 was 6.48 in experiment [1] and under 5.00 in experiment [2].

Source of the values: ChEMBL document CHEMBL4627363, “S1P1-selective agonist prodrug IMMH002 is phosphorylated in rats to form an S-configured enantiomer: Synthesis, verification, and biological activity of the in vivo active metabolite” (Bioorg Med Chem Lett, 2020).
